Data published in US20120076757A1, “COMPOSITION FOR TRANSMUCOSAL DELIVERY OF POLYPEPTIDES” (Cephalon, Inc., priority 2007, published 2012).

Experiments:
[1] = Anaesthetized dog model, desmopressin oral transmucosal (buccal) permeation, serum by LC/MS/MS; format: in vivo
Description: Anesthetized dog models were used to evaluate transmucosal permeation of polypeptide compositions prepared in accordance with the invention. Mature mongrel large-breed (15-35 kg) dogs were screened for medical conditions to qualify. For testing, the dogs were anaesthetized, placed on their right or left side, and cannulated via the cephalic vein. A Teflon ring was attached to the buccal mucosa in a horizontal position to form a reservoir. Biologically active polypeptides to be evaluated were deposited, with or without enhancer components, onto the buccal mucosa surrounded by the ring. Depending upon the experiment, active polypeptides were deposited in the form of solution, dry powder or solid dosage form (tablet). Blood samples were taken every 10 minutes for a period of 2 hours, with additional samples taken up to 4 hours depending upon the protocol. The active-containing compositions were removed from the reservoir at 60 minutes and the reservoir rinsed twice.
At 2 hours, the dog is removed from anesthesia and the ring is removed from its buccal mucosa. Following recovery from anesthesia, subsequent blood samples are taken from the awake dogs. Blood samples are allowed to clot, the serum is separated by centrifugation, and the serum is frozen at −20° or −80° C., depending upon the protocol until analyzed for the active polypeptide content.
Desmopressin (deamino-Cysl-D-Arg Vasopressin, or D-Arg Vasopresin) was tested for buccal permeation into the blood stream by various administration forms: solution, powder, and compressed tablet.
Desmopressin-containing tablets for the experiment were prepared by combining 200 mg of effervescent formulation described in Example 1A (EF 1) with 20 mg sodium taurocholate. This mixture was added directly into a vial of lyophilized desmopressin. […]
Tablets prepared accordingly were tested in dogs per protocol described above. […] Desmopres sin was measured using LC/MS/MS analysis o the serum samples.

[2] = system: cultured human buccal carcinoma cells (SqCC/Y1 cells)
Description: (§1) In vitro permeability testing was conducted as follows. Starting with acrylic inserts having one end sealed with 0.6 cm square area inserts of acrylic and polycarbonate membranes without cells, the cultured human buccal carcinoma cells (SqCC/Y1 cells) were grown on the membrane surface in culture medium for a period of 24 hours. The culture medium was removed from the top of the insert (“air-lifting” process), wherein the cells continued to receive nutrients from the culture medium beneath the inserts. Under these conditions, the cells were grown for a period of 7 to 10 days so as to grow the cells to multilayer confluence on the polycarbonate membrane, thereby increasing cellular density to a multi-layer, tissue-like barrier resembling that of buccal mucosal tissue.
(§2) The assay was performed by rinsing the inserts with Krebs-Ringer buffer solution without sodium bicarbonate (KRB) and inspecting for uniformity by measuring the transepithelial electrical resistance (TEER). When the average electrical resistance necessary was 350 ohms or greater, the inserts were selected for permeability testing, thereby ensuring consistent permeability barrier thickness and distribution.
(§3) The inserts were separated into the groups (e.g., n=3) with closely similar average TEER values (of the group) to be used in testing particular formulations of active pharmaceutical ingredients (i.e., polypeptide). For a given bile salt, for example, the sample groups were as follows: • 1) polypeptide alone; • 2) polypeptide in combination with bile salt; • 3) polypeptide in combination with effervescent excipient composition (Excipient Formula 1) powder; • 4) polypeptide in combination with bile salt (varying concentrations) and effervescent excipient composition (Excipient Formula 1) powder.
(§4) The inserts were placed into cell culture wells with a defined volume of KRB and incubated at 37° C. on shaker tables set at 100 rpm. Thus, the cells were exposed to the given active ingredient (polypeptide) without and in combination with the various excipient formulations described.
(§5) Samples were removed from the basolateral fluid every 10 minutes for a period of one hour, and the removed fluid was replaced with an equal volume of KRB. At the end of the hour, the residual fluid within the insert was recovered and stored, the insert was rinsed with KRB, and the TEER value again measured. The TEER differences between the starting step TEER and final step TEER were recorded.
(§6) The samples from the basolateral wells were analyzed for the active ingredient (polypeptide) using various techniques. The amount of active in the well was calculated and corrected for sampling loss.
(§7) Enhancement Ratio (ER) is equal to the ratio of the Papp with absorption enhancer divided by the Papp without absorption enhancer. Thus, this technique was used for each of the proposed permeability enhancement compositions below.
(§8) The permeability of fluorescently-labeled polypeptide with and without enhancement was measured by the in vitro permeability assay. The amount of polypeptide permeating through the cells/tissue into the basolateral fluid was measured and the apparent permeability coefficient (Papp) for each polypeptide sample was calculated.

[3] = Anaesthetized dog model, salmon calcitonin oral transmucosal permeation from effervescent tablets; format: in vivo; details: adding 2.5% NaTC or more to the effervescent formulation
Description: Anesthetized dog models were used to evaluate transmucosal permeation of polypeptide compositions prepared in accordance with the invention. Mature mongrel large-breed (15-35 kg) dogs were screened for medical conditions to qualify. For testing, the dogs were anaesthetized, placed on their right or left side, and cannulated via the cephalic vein. A Teflon ring was attached to the buccal mucosa in a horizontal position to form a reservoir. Biologically active polypeptides to be evaluated were deposited, with or without enhancer components, onto the buccal mucosa surrounded by the ring. Depending upon the experiment, active polypeptides were deposited in the form of solution, dry powder or solid dosage form (tablet). […]
At 2 hours, the dog is removed from anesthesia and the ring is removed from its buccal mucosa. […] Blood samples are allowed to clot, the serum is separated by centrifugation, and the serum is frozen at −20° or −80° C., depending upon the protocol until analyzed for the active polypeptide content.
Salmon calcitonin (s-Ct) was tested for buccal permeation into the blood stream of anesthetized dogs with effervescent compressed tablets containing s-Ct and the bile salt (sodium taurocholate) at 0%, 2.5%, 5.0%, and 10% bile salt. […] The following table contains the formulation information of the tablets evaluated. […]

[4] = system: cultured human buccal carcinoma cells (SqCC/Y1 cells); assay: In vitro permeability assay (apparent permeability coefficient Papp across multilayer buccal cell culture); details: ELISA
Description: as §1, §2, §3, §4, §5, §6, §7, §8

[5] = INTRON A acquired from Schering Corp.; cited from earlier work
[6] = with bile salt (sodium taurocholate) alone

NC(=O)CC[C@@H]1NC(=O)[C@H](Cc2ccccc2)NC(=O)[C@H](Cc2ccc(O)cc2)NC(=O)CCSSC[C@@H](C(=O)N2CCC[C@H]2C(=O)N[C@H](CCCN=C(N)N)C(=O)NCC(N)=O)NC(=O)[C@H](CC(N)=O)NC1=O [Desmopressin, deamino-Cysl-D-Arg Vasopressin]
permeation of the polypeptide across the mucosal tissue in the in vivo model ([1]; desmopressin in combination with the bile salt alone): does not appear to appreciably increase the permeation
transport/permeation of the polypeptide across the mucosal tissue in the in vivo model ([1]; desmopressin with combination of bile salt and effervescent formulation): appears to appreciably enhance
permeation of the polypeptide across the mucosal tissue in the in vivo model ([1]; desmopressin with the effervescent formulations alone): does not appear to appreciably increase the permeation
in vitro permeation of desmopressin across mucosal tissue (Papp) [2]: does not appear to appreciably increase polypeptide permeation
in vitro transport/permeability of desmopressin across mucosal tissue (Papp) [2]: appears to exhibit appreciable enhancement

CC(C)C[C@H](NC(=O)[C@H](CCCCN)NC(=O)CNC(=O)[C@H](CC(C)C)NC(=O)[C@@H](NC(=O)[C@@H]1CSSC[C@H](N)C(=O)N[C@@H](CO)C(=O)N[C@@H](CC(N)=O)C(=O)N[C@@H](CC(C)C)C(=O)N[C@@H](CO)C(=O)N[C@@H]([C@@H](C)O)C(=O)N1)C(C)C)C(=O)N[C@@H](CO)C(=O)N[C@@H](CCC(N)=O)C(=O)N[C@@H](CCC(=O)O)C(=O)N[C@@H](CC(C)C)C(=O)N[C@@H](Cc1c[nH]cn1)C(=O)N[C@@H](CCCCN)C(=O)N[C@@H](CC(C)C)C(=O)N[C@@H](CCC(N)=O)C(=O)N[C@H](C(=O)N[C@@H](Cc1ccc(O)cc1)C(=O)N1CCC[C@H]1C(=O)N[C@@H](CCCNC(=N)N)C(=O)N[C@H](C(=O)N[C@@H](CC(N)=O)C(=O)N[C@H](C(=O)NCC(=O)N[C@@H](CO)C(=O)NCC(=O)N[C@H](C(=O)N1CCC[C@H]1C(N)=O)[C@@H](C)O)[C@@H](C)O)[C@@H](C)O)[C@@H](C)O [s-CT]
transmucosal permeability of s-Ct in anesthetized dogs [3]: large improvement in permeability
permeation result of combination compared with individual effects ([4]; s-CT + taurocholate + EF 2): greater than the sum of the individual permeation effects
in vitro permeation of s-CT across mucosal tissue (Papp) ([4]; with EF 2 alone): does not appear to exhibit an increase in permeation
in vitro permeation of s-CT across mucosal tissue (Papp) [4, 6]: does not appear to exhibit an increase in permeation
in vitro permeation/transport of s-CT across mucosal tissue (Papp) ([4]; with effervescent formulation (EF 2) and 1% or 2% bile salt): does appear to exhibit appreciably enhanced permeation/transport

IFNα
specific activity [5]: 260 million IU per mg protein
permeation result of combination compared with individual effects ([4]; IFNα + taurocholate + EF 1): greater than the sum of the individual permeation effects
in vitro permeation of IFNα across mucosal tissue (Papp) ([4]; with 1% or 2% bile salt and effervescent composition (EF 1)): does appears to produce appreciable enhancement
in vitro permeation of IFNα across mucosal tissue (Papp) ([4]; with EF 1 alone): does not appear to appreciably increase the permeation
in vitro permeation of IFNα across mucosal tissue (Papp) ([4]; with bile salt alone): does not appear to appreciably increase the permeation

IGF-1: Insulin-like Growth Factor-1, 70 amino acids with 3 internal disulfide bonds
permeation result of combination compared with individual effects ([4]; IGF-1 + taurocholate + EF2): greater than the sum of the individual permeation effects
in vitro permeation of IGF-1 across mucosal tissue (Papp) ([4]; with EF 2 alone): does not appear to exhibit an increase in permeation
in vitro permeation/transport of IGF-1 across mucosal tissue (Papp) ([4]; with EF2 and 1% bile salt): appears to exhibit enhanced permeation/transport
in vitro permeation of IGF-1 across mucosal tissue (Papp) [4, 6]: does not appear to exhibit an increase in permeation
